Laboratory results reported in patent publication US8952030B2, “Morphinan derivative” (priority 2011, dated 2015).
Read-outs that look alike come from different tables or passages of the source.

Columns and labels:
Type in all cases: cell-based
opioid δ receptor = molecular target: T1, opioid δ receptor (Homo sapiens, UniProt P41143); assay: Opioid receptor functional test (Lance Ultra cAMP Kit), δ receptor agonist activity; conditions: for Emax: read-out: δ Receptor Emax
T1 construct: expressed in transfected cells; host or cells: CHO cells
Method: (§1) Functional activities of the compounds of the present invention for the μ, […], and κ opioid receptors were investigated.
(§2) The test was performed according to a prescribed method by using Lance Ultra cAMP Kit (Perkin-Elmer). The agonist activities were evaluated as follows. The CHO cells expressing each opioid receptor (μ, δ, or κ) and a test compound were reacted in an assay buffer (1×HBSS, […], pH 7.4, […] IBMX (isobutylmethylxanthine), 7.5% BSA) for 30 minutes in the presence of 10 μM forskolin. Then, the cAMP detection reagent included in the kit was added, and after 1 hour, time-resolved fluorescence measurements were performed by using the EnVision plate reader (Perkin-Elmer). A dose-responce curve of the test compound was obtained from fluorescence values measured at 665 nm, and EC50 value and Emax value were calculated. The Emax value was calculated as a ratio of the maximum responce of the test compound with respect to the maximum responce of each control agent (SNC80 for δ, DAMGO for μ, U-69593 for κ) taken as 100%.
(§3) 1): Hydrochloride was used.

opioid κ receptor = molecular target: T2, opioid κ receptor (Homo sapiens, UniProt P41145); assay: Opioid receptor functional test (Lance Ultra cAMP Kit), κ receptor agonist activity; conditions: for Emax at 10 µM: maximum concentration (10 μM), reaction did not reach the maximum, EC50 N.C., relative to U-69593
T2 construct: expressed in transfected cells; host or cells: CHO cells
Method: as §1, §2, §3

opioid μ receptor = molecular target: T3, opioid μ receptor (Homo sapiens, UniProt P35372); assay: Opioid receptor functional test (Lance Ultra cAMP Kit), μ receptor agonist activity; conditions: for EC50: CHO cells expressing μ opioid receptor, 10 μM forskolin, cAMP; for Emax at 10 µM: maximum concentration (10 μM), reaction did not reach the maximum, EC50 N.C., relative to DAMGO
T3 construct: expressed in transfected cells; host or cells: CHO cells
Method: as §1, §2, §3

[1] = CHO cells expressing δ opioid receptor, 10 μM forskolin, cAMP, hydrochloride was used, read-out: δ Receptor EC50 value
[2] = maximum response relative to SNC80 taken as 100%, hydrochloride was used
[3] = read-out: μ Receptor responce rate at the maximum concentration (reference value)
[4] = maximum response relative to DAMGO taken as 100%, hydrochloride was used, read-out: μ Receptor Emax
[5] = hydrochloride was used, read-out: κ Receptor responce rate at the maximum concentration (reference value)
[6] = CHO cells expressing κ opioid receptor, 10 μM forskolin, cAMP, hydrochloride was used, read-out: κ Receptor EC50 value
[7] = maximum response relative to U-69593 taken as 100%, hydrochloride was used, read-out: κ Receptor Emax
[8] = hydrochloride was used, read-out: μ Receptor responce rate at the maximum concentration (reference value)

T1 sequence (P41143 whole entry): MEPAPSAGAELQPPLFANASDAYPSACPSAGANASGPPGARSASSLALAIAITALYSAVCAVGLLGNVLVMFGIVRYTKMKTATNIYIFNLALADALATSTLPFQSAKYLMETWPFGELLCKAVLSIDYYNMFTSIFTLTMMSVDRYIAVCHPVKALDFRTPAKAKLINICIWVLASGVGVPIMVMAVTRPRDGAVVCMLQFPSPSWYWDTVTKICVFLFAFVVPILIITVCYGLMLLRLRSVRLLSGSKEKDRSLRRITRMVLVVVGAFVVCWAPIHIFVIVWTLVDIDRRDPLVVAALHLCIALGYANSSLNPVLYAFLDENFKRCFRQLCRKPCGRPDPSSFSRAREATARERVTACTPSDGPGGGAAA
T3 sequence (P35372 whole entry): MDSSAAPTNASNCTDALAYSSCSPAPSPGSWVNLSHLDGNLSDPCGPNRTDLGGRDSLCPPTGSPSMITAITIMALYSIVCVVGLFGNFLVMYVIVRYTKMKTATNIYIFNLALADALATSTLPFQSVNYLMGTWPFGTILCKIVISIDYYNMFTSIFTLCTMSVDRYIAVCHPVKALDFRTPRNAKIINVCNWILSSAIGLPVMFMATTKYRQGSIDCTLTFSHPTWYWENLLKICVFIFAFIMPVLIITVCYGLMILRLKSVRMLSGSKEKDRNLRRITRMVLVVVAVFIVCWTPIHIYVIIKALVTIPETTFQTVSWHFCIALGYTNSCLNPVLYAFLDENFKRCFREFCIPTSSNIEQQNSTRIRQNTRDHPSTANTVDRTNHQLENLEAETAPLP
T2 sequence (P41145 whole entry): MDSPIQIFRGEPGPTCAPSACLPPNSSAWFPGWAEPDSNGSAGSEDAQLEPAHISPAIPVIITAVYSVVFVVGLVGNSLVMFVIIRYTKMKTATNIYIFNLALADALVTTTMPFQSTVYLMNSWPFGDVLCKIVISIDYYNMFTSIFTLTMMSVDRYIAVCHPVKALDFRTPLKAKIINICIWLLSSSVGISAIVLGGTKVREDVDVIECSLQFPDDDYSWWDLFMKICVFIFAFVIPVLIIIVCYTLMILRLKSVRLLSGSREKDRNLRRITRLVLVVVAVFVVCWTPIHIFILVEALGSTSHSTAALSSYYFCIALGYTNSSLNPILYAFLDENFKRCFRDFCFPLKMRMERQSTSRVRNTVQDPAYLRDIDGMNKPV

Row | SMILES | EC50 (opioid δ receptor; [1]) [nM] | Emax (opioid δ receptor; [2]) [%] | Emax (opioid κ receptor; read-out: κ Receptor responce rate at the maximum concentration (reference value)) [%] | Emax (opioid μ receptor; [3]) [%] | EC50 (opioid κ receptor) [nM] | Emax (opioid κ receptor; read-out: κ Receptor Emax) [%] | EC50 (opioid μ receptor; hydrochloride was used) [nM] | Emax (opioid μ receptor; [4]) [%] | Emax at 10 µM (opioid κ receptor; [5]) [%] | EC50 (opioid κ receptor; [6]) [nM] | Emax (opioid κ receptor; [7]) [%] | Emax at 10 µM (opioid μ receptor; [8]) [%] | EC50 (opioid δ receptor) [nM] | Emax (opioid δ receptor) [%]
1 | O=C(c1ccccc1)N1C[C@H]2O[C@@]34CC[C@@H]1[C@@H]2[C@@]31CCN(CC2CC2)[C@@H]4Cc2ccc(O)cc21 [Compound 10, [(1S,3aR,5aS,6R,11bR,11cS)-14-(cyclopropylmethyl)-10-hydroxy-1,2,3a,4,5,6,7,11c-octahydro-3H-6,11b-(iminoethano)-1,5a-epoxynaphtho[1,2-e]indol-3-yl](phenyl)methanone] | < 1 | 127 | 2.9 | 3.9 |  |  |  |  |  |  |  |  |  | 
2 | CN1CC[C@@]23c4cc(O)ccc4C[C@@H]1[C@]21CC[C@@H]2[C@H]3[C@@H](CN2C(=O)c2ccccc2)O1 [Compound 12, [(1S,3aR,5aS,6R,11bR,11cS)-10-hydroxy-14-methyl-1,2,3a,4,5,6,7,11c-octahydro-3H-6,11b-(iminoethano)-1,5a-epoxynaphtho[1,2-e]indol-3-yl](phenyl)methanone] | < 1 | 94 |  |  | > 10 | 96 | > 1 | 103 |  |  |  |  |  | 
3 | O=C(c1ccccc1)N1C[C@H]2O[C@@]34CC[C@@H]1[C@@H]2[C@@]31CCN(CCO)[C@@H]4Cc2ccc(O)cc21 [Compound 27, [(1S,3aR,5aS,6R,11bR,11cS)-10-hydroxy-14-(2-hydroxyethyl)-1,2,3a,4,5,6,7,11c-octahydro-3H-6,11b-(iminoethano)-1,5a-epoxynaphtho[1,2-e]indol-3-yl](phenyl)methanone] | < 10 | 95 |  |  |  |  | > 50 | 34 | 33 |  |  |  |  | 
4 | Oc1ccc2c(c1)[C@]13CCN(CC4CC4)[C@H](C2)[C@]12CC[C@@H]1[C@H]3[C@@H](CN1c1ccccc1)O2 [Compound 31, (1S,3aR,5aS,6R,11bR,11cS)-14-(cyclopropylmethyl)-3-phenyl-2,3,3a,4,5,6,7,11c-octahydro-1H-6,11b-(iminoethano)-1,5a-epoxynaphtho[1,2-e]indol-10-ol] | < 10 | 46 |  |  |  |  |  |  |  | > 1 | 23 | 14 |  | 
5 | O=C(c1ccco1)N1C[C@H]2O[C@@]34CC[C@@H]1[C@@H]2[C@@]31CCN(CC2CC2)[C@@H]4Cc2ccc(O)cc21 [Compound 50, [(1S,3aR,5aS,6R,11bR,11cS)-14-cyclopropylmethyl-10-hydroxy-1,2,3a,4,5,6,7,11c-octahydro-3H-6,11b-(iminoethano)-1,5a-epoxynaphtho[1,2-e]indol-3-yl](2-furyl)methanone] | < 1 | 82 |  |  |  |  |  |  | 12 |  |  | 5.4 |  | 
6 | O=C(/C=C/c1ccccc1)N1C[C@H]2OC34CCC1C2C31CCN(CC2CC2)C4Cc2ccc(O)cc21 (stereo partly drawn) [Compound 57, (2E)-1-[(1S,3aR,5aS,6R,11bR,11cS)-14-(cyclopropylmethyl)-10-hydroxy-1,2,3a,4,5,6,7,11c-octahydro-3H-6,11b-(iminoethano)-1,5a-epoxynaphtho[1,2-e]indol-3-yl]-3-phenylpropenone] | < 10 | 63 |  |  |  |  |  |  | 25 |  |  | 3 |  | 
7 | O=S(=O)(c1ccccc1)N1C[C@H]2O[C@@]34CC[C@@H]1[C@@H]2[C@@]31CCN(CC2CC2)[C@@H]4Cc2ccc(O)cc21 [Compound 58, (1S,3aR,5aS,6R,11bR,11cS)-3-benzenesulfonyl-14-(cyclopropylmethyl)-2,3,3a,4,5,6,7,11c-octahydro-1H-6,11b-(iminoethano)-1,5a-epoxynaphtho[1,2-e]indol-10-ol] |  |  |  |  |  |  | > 1 | 54 | 19 |  |  |  | < 10 | 66
8 | O=C(c1ccccc1)N1C[C@H]2O[C@@]34CC[C@@H]1[C@@H]2[C@@]31CCN(CC2CC2)[C@@H]4Cc2cccc(O)c21 [Compound 68, [(1S,3aR,5aS,6R,11bR,11cS)-14-(cyclopropylmethyl)-11-hydroxy-1,2,3a,4,5,6,7,11c-octahydro-3H-6,11b-(iminoethano)-1,5a-epoxynaphtho[1,2-e]indol-3-yl](phenyl)methanone] | < 10 | 90 |  |  |  |  | > 100 | 56 |  | > 100 | 99 |  |  | 
9 | CCCN1CC[C@@]23c4cc(O)ccc4C[C@@H]1[C@]21CC[C@@H]2[C@H]3[C@@H](CN2C(=O)c2ccccc2)C1 [Compound 83, [(1S,3aR,5aS,6R,11bR,11cS)-10-hydroxy-14-propyl-1,2,3a,4,5,6,7,11c-octahydro-3H-6,11b-(iminoethano)-1,5a-methanonaphtho[1,2-e]indol-3-yl](phenyl)methanone] | < 1 | 99 |  |  |  |  |  |  | 2.1 |  |  | 7.9 |  | 
10 | O=C(c1ccccc1)N1C[C@H]2C[C@@]34CC[C@@H]1[C@@H]2[C@@]31CCN(CCF)[C@@H]4Cc2ccc(O)cc21 [Compound 84, [(1S,3aR,5aS,6R,11bR,11cS)-14-(2-fluoroethyl)-10-hydroxy-1,2,3a,4,5,6,7,11c-octahydro-3H-6,11b-(iminoethano)-1,5a-methanonaphtho[1,2-e]indol-3-yl](phenyl)methanone] | < 10 | 99 |  |  |  |  |  |  | 5.9 |  |  | 20 |  | 
11 | CC(C)N(Cc1ccccc1)C(=O)N1C[C@H]2C[C@@]34CCC1C2[C@@]31CCN(CC2CC2)[C@@H]4Cc2ccc(O)cc21 (stereo partly drawn) [Compound 155, (1S,5aS,6R,11bR)—N-benzyl-14-(cyclopropylmethyl)-10-hydroxy-N-isopropyl-3a,4,5,6,7,11c-hexahydro-1H-6,11b-(iminoethano)-1,5a-methanonaphtho[1,2-e]indole-3(2H)-carboxamide] | < 1 | 91 |  |  |  |  |  |  |  | > 1 | 47 | 3 |  | 
12 | O=C(N1CCCCC1)N1C[C@H]2CC34CCC1C2C31CCN(CC2CC2)C4Cc2ccc(O)cc21 (stereo partly drawn) [Compound 167] | < 1 | 96 |  |  |  |  |  |  |  | > 1 | 22 | 4.6 |  | 
13 | O=C(Oc1ccccc1)N1C[C@H]2CC34CCC1C2C31CCN(CC2CC2)C4Cc2ccc(O)cc21 (stereo partly drawn) [Compound 195] |  |  |  | 5.6 | > 1 | 27 |  |  |  |  |  |  | < 10 | 92
14 | CC(C)COC(=O)N1C[C@H]2CC34CCC1C2C31CCN(CC2CC2)C4Cc2ccc(O)cc21 (stereo partly drawn) [Compound 196] | < 10 | 67 |  |  |  |  |  |  |  | > 1 | 12 | 7.6 |  | 
15 | Oc1ccc2c(c1)[C@]13CCN(CC4CC4)[C@H](C2)[C@]12CCC1C3[C@@H](CN1c1ccccn1)C2 (stereo partly drawn) [Compound 221, (1S,5aS,6R,11bR)-14-(cyclopropylmethyl)-3-(pyridin-2-yl)-2,3,3a,4,5,6,7,11c-octahydro-1H-6,11b-(iminoethano)-1,5a-methanonaphtho[1,2-e]indol-10-ol] | < 1 | 90 |  |  |  |  | > 1 | 30 |  | > 1 | 42 |  |  | 
16 | COc1ccc2c(c1)[C@]13CCN(CC4CC4)[C@H](C2)[C@]12CCC1C3[C@@H](CN1c1nc(C)cc(C)n1)C2 (stereo partly drawn) [Compound 222, (1S,5aS,6R,11bR)-14-(cyclopropylmethyl)-3-(4,6-dimethylpyrimidin-2-yl)-10-methoxy-2,3,3a,4,5,6,7,11c-octahydro-1H-6,11b-(iminoethano)-1,5a-methanonaphtho[1,2-e]indole] | < 10 | 105 |  |  |  |  | > 100 | 52 | 43 |  |  |  |  | 
17 | Oc1ccc2c(c1)C13CCN(CC4CC4)C(C2)C12CCC1C3[C@@H](CN1c1nccs1)C2 (stereo partly drawn) [Compound 241] | < 10 | 81 |  |  |  |  |  |  |  | > 1 | 33 | 11 |  | 
18 | Oc1ccc2c(c1)C13CCN(CC4CC4)C(C2)C12CCC1C3[C@@H](CN1c1nc(-c3ccccc3)cs1)C2 (stereo partly drawn) [Compound 242] | < 50 | 68 |  |  |  |  |  |  |  | > 10 | 47 | 9.2 |  | 
19 | Cc1cc(C)nc(N2C[C@H]3CC45CCC2C3C42CCN(CC(F)(F)c3ccccc3)C5Cc3ccc(O)cc32)n1 (stereo partly drawn) [Compound 283] | < 50 | 91 |  |  |  |  | > 500 | 101 | 11 |  |  |  |  | 
20 | Cc1cc(C)nc(N2C[C@H]3CC45CCC2C3C42CCN(C[C@H](C)O)C5Cc3ccc(O)cc32)n1 (stereo partly drawn) [Compound 285] | < 10 | 81 |  |  |  |  | > 10 | 48 |  | > 100 | 78 |  |  | 
